# Results taken from US8633242B2, “Benzylidene indanones and processes for preparation and use thereof” (Council of Scientific and Industrial Research, priority 2011, dated 2014).
# Read-outs that look alike come from different tables or passages of the source.
# Tested on: Swiss albino mice
# Conditions: mouse, in vivo; for ALKP / Body weight / Haemoglobin / SGOT / SGPT / Serum creatinine / Serum total cholesterol / Serum triglycerides: po
# Procedure: In view of potent anti-cancer activity of compound 8 in in-vitro model, acute oral toxicity of the same was carried out in Swiss albino mice for its further development into drug product. For the study, 30 mice (15 male and 15 female) were taken and divided into five groups comprising 3 male and 3 female mice in each group weighing between 20-25 g. The animals were maintained at 22±5° C. with humidity control and also on an automatic dark and light cycle of 12 hours. The animals were fed with the standard rat feed and provided ad libitum drinking water. Mice of group 1 were kept as control and animals of groups […] were kept as experimental. The animals were acclimatized for 7 days in the experimental environment prior to the actual experimentation. The test compound was suspended by ultrasonication in cremophore EL (20% in distilled water) using traces of ethanol as a co-solvent and was given at 5, 50, 300 and 1000 mg/kg body weight to animals of groups 2, 3, 4 and 5 respectively. Control animals received only vehicle.
# The animals were checked for mortality and any signs of ill health at hourly interval on the day of administration of drug and there after a daily general case side clinical examination was carried out including changes in skin, mucous membrane, eyes, occurrence of secretion and excretion and also responses like lachrymation, pilo-erection respiratory patterns etc. Also changes in gait. posture and response to handling were also recorded (Allan at al., 2007). In addition to observational study, body weights were recorded and blood and serum samples were collected from all the animals on 7th day after experiment and were analysed for total RBC, WBC, differential leucoyte count haemoglobin percentage and biochemical parameters like total cholesterol, triglycerides, creatinine, SGPT and SGOT activity. The animals were then sacrificed and were necropsed for any gross pathological changes. Weights of vital organs like liver, heart, kidney etc. were recorded (Chanda et al., 2009).
compound,measurement,setting,value
"COc1cc(C2/C(=C/c3ccc4c(c3)OCO4)C(=O)c3cc(OC)c(OC)c(OC)c32)cc(OC)c1OC (racemic) [Compound 8, 2-(3,4-Methylenedioxybenzylidine), 3-(3,4,5-trimethoxyphenyl), 4,5,6-trimethoxyindanone]","observational changes, morbidity and mortality",300 mg/kg,"No observational changes, morbidity and mortality"
same,ALKP,5 mg/kg,82.51 ± 3.04 U/L
same,Body weight,5 mg/kg,30.38 ± 0.77 g
same,Haemoglobin,5 mg/kg,11.31 ± 1.14 g/dL
same,SGOT,5 mg/kg,18.74 ± 1.54 U/L
same,SGPT,5 mg/kg,6.90 ± 0.17 U/L
same,Serum creatinine,5 mg/kg,0.53 ± 0.04 mg/dL
same,Serum total cholesterol,5 mg/kg,109.42 ± 5.46 mg/dL
same,Serum triglycerides,5 mg/kg,112.69 ± 3.75 mg/dL
same,ALKP,50 mg/kg,94.24 ± 8.83 U/L
same,Body weight,50 mg/kg,28.37 ± 1.42 g
same,Haemoglobin,50 mg/kg,12.93 ± 0.98 g/dL
same,SGOT,50 mg/kg,20.66 ± 1.15 U/L
same,SGPT,50 mg/kg,9.77 ± 0.77 U/L
same,Serum creatinine,50 mg/kg,0.45 ± 0.05 mg/dL
same,Serum total cholesterol,50 mg/kg,125.69 ± 5.90 mg/dL
same,Serum triglycerides,50 mg/kg,90.62 ± 8.41 mg/dL
same,ALKP,300 mg/kg,90.11 ± 5.42 U/L
same,Body weight,300 mg/kg,29.35 ± 1.63 g
same,Haemoglobin,300 mg/kg,11.46 ± 0.76 g/dL
same,SGOT,300 mg/kg,26.55 ± 3.23 U/L
same,SGPT,300 mg/kg,9.16 ± 1.14 U/L
same,Serum creatinine,300 mg/kg,0.56 ± 0.07 mg/dL
same,Serum total cholesterol,300 mg/kg,117.57 ± 3.45 mg/dL
same,Serum triglycerides,300 mg/kg,113.15 ± 3.65 mg/dL
same,Body weight,1000 mg/kg,30.69 ± 0.83 g
same,Haemoglobin,1000 mg/kg,12.21 ± 1.46 g/dL
same,SGOT,1000 mg/kg,19.38 ± 3.49 U/L
same,Serum creatinine,1000 mg/kg,0.42 ± 0.09 mg/dL
same,Serum total cholesterol,1000 mg/kg,118.60 ± 6.07 mg/dL
same,Serum triglycerides,1000 mg/kg,97.44 ± 6.96 mg/dL
